Assay results reported in patent US7115642B2, “Substituted diphenyl isoxazoles, pyrazoles and oxadiazoles useful for treating HCV infection” (priority 2003, dated 2006).
Where two headings read alike, the source gives them in different places.

How the values were obtained:
[1] = tested on: HCV replicon (5-2 Luc replicon-comprising cells); experiment: HCV replicon assay (luciferase); type: cell-based, Hepatitis C virus; conditions: 5-2 Luc replicon cells, luciferase readout, read-out: Replicon IC50
Outline: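 Readout: IC50 from a 50% drop in luciferase signal (Bright-Glo, luminometer), scored + (≤10 μM) or − (>10 μM). Compounds added at various concentrations to 5-2 Luc replicon cells (Huh7 background), pre-incubated 24 h, then incubated 24 h more before reading.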

[2] = Cytotoxicity assay (Cell Titer Glo); type: cell-based; conditions: human; 48 hr with compound, ATP-dependent Cell Titer Glo assay; read-out: IC50 in cytotoxicity assay (number of viable cells)
Description: Compounds 67, 167, 169, 13, 1, 145, 29, 119, 63, 31, 39, 103, 123, 121, 97, 129, 79, 111, 85, 89, 109, 127, 131, 95, 47, 57, 69, 165, 161, 163, 3, 137, 15, 141, 41, 53, 33, 113, 93, 105, 77, 91, 81, 83, 35, 27, 65, 7, 135, 51, 139, 51, 49, 143, 5, 149, 11, 37, 21, 45, 61, 75, 23, 125, 73, 43, 171 and 101 were tested in a cytotoxicity assay with liver cells including an HCV replicon (5-2 Luc cells, 9–13 cells or Huh-7 cells). In the assay, cells were seeded onto 96-well plates (approx. 7500 cells/well in a volume of 90 μl) and grown for 24 hr at 37° C. On day 2, various concentrations of test compound (in a volume of 10 μl) were added to the wells and the cells were grown for an additional 48 hr at 37° C. On day 4, an ATP-dependent R-Luciferase assay (Cell Titer Glo assay) was performed to determine the number of viable cells.

`O=C(Nc1cccc(-c2cc(-c3c(Cl)cccc3Cl)no2)c1)C(Br)Br` [Compound 29, 2,2-Dibromo-N-[3-[3-(2,6-dichlorophenyl)-5-isoxazolyl]phenyl]Acetamide] gave an IC50 ([1]; Hepatitis C virus) of less than 10 µM and an IC50 at 48 h [2] greater than 10 µM.

Work on `Cc1cccc(Cl)c1-c1cc(-c2cccc(NC(=O)C(Cl)Cl)c2)on1` [Compound 31, 2,2-Dichloro-N-[3-[3-(2-chloro-6-methylphenyl)-5-isoxazolyl]phenyl]Acetamide] yielded an IC50 ([1]; Hepatitis C virus) of less than 10 µM and an IC50 at 48 h [2] greater than 10 µM.

Molecule `O=C(Nc1cccc(-c2cc(-c3ccccc3C(F)(F)F)no2)c1)C(Cl)Cl` [Compound 33, 2,2-Dichloro-N-[3-[3-(2-trifluoromethylphenyl)-5-isoxazolyl]phenyl]Acetamide] has an IC50 ([1]; Hepatitis C virus) of less than 10 µM and an IC50 at 48 h [2] greater than 10 µM.

Work on `O=C(Nc1cccc(-c2cc(-c3c(O)cccc3C(F)(F)F)no2)c1)C(Cl)Cl` [Compound 35, 2,2-Dichloro-N-[3-[3-(2-hydroxy-6-trifluoromethylphenyl)-5-isoxazolyl]phenyl]Acetamide] yielded an IC50 ([1]; Hepatitis C virus) of less than 10 µM and an IC50 at 48 h [2] greater than 10 µM.

`CC(C)c1cccc(Cl)c1-c1cc(-c2cccc(NC(=O)C(Cl)Cl)c2)on1` [Compound 39, 2,2-Dichloro-N-[3-[3-(2-chloro-6-isopropylphenyl)-5-isoxazolyl]phenyl]Acetamide] showed an IC50 ([1]; Hepatitis C virus) of less than 10 µM and an IC50 at 48 h [2] greater than 10 µM.

With `O=C(Nc1cccc(-c2cc(-c3c(F)cccc3C(F)(F)F)no2)c1)C(Cl)Cl` [Compound 41, 2,2-Dichloro-N-[3-[3-(2-fluoro-6-trifluoromethylphenyl)-5-isoxazolyl]phenyl]Acetamide] the IC50 ([1]; Hepatitis C virus) was less than 10 µM and the IC50 at 48 h [2] was greater than 10 µM.

For `COc1cccc(F)c1-c1cc(-c2cccc(NC(=O)C(Cl)Cl)c2)on1` [Compound 43, 2,2-Dichloro-N-[3-[3-(2-fluoro-6-methoxyphenyl)-5-isoxazolyl]phenyl]Acetamide], the IC50 ([1]; Hepatitis C virus) was less than 10 µM and the IC50 at 48 h [2] was greater than 10 µM.

With `O=C(Nc1cccc(-c2cc(-c3ccccc3OC(F)F)no2)c1)C(Cl)Cl` [Compound 45, 2,2-Dichloro-N-[3-[3-(2-difluoromethoxyphenyl)-5-isoxazolyl]phenyl]Acetamide] the IC50 ([1]; Hepatitis C virus) was less than 10 µM and the IC50 at 48 h [2] was greater than 10 µM.

Molecule `Cc1cccc(C)c1-c1cc(-c2cccc(NC(=O)C(Cl)Cl)c2)on1` [Compound 47, 2,2-Dichloro-N-[3-[3-(2,6-dimethylphenyl)-5-isoxazolyl]phenyl]Acetamide] has an IC50 ([1]; Hepatitis C virus) of less than 10 µM and an IC50 at 48 h [2] greater than 5 µM.

With `O=C(Nc1cccc(-c2cc(-c3c(F)cccc3I)no2)c1)C(Cl)Cl` [Compound 49, 2,2-Dichloro-N-[3-[3-(2-fluoro-6-iodophenyl)-5-isoxazolyl]phenyl]Acetamide] the IC50 ([1]; Hepatitis C virus) was less than 10 µM and the IC50 at 48 h [2] was greater than 10 µM.

Molecule `Cc1ccc(Cl)c(-c2cc(-c3cccc(NC(=O)C(Cl)Cl)c3)on2)c1F` [Compound 51, 2,2-Dichloro-N-[3-[3-(6-chloro-2-fluoro-3-methylphenyl)-5-isoxazolyl]phenyl]Acetamide] has an IC50 ([1]; Hepatitis C virus) of less than 10 µM and an IC50 at 48 h [2] greater than 10 µM.

With `O=C(Nc1cccc(-c2cc(-c3c(F)ccc(F)c3Cl)no2)c1)C(Cl)Cl` [Compound 53, 2,2-Dichloro-N-[3-[3-(2-chloro-3,6-difluorophenyl)-5-isoxazolyl]phenyl]Acetamide] the IC50 ([1]; Hepatitis C virus) was less than 10 µM and the IC50 at 48 h [2] was greater than 10 µM.

With `CCOc1ccccc1-c1cc(-c2cccc(NC(=O)C(Cl)Cl)c2)on1` [Compound 61, 2,2-Dichloro-N-[3-[3-(2-ethoxyphenyl)-5-isoxazolyl]phenyl]Acetamide] the IC50 ([1]; Hepatitis C virus) was less than 10 µM and the IC50 at 48 h [2] was greater than 10 µM.

With `CC(C)c1ccccc1-c1cc(-c2cccc(NC(=O)C(Cl)Cl)c2)on1` [Compound 63, 2,2-Dichloro-N-[3-[3-(2-isopropylphenyl)-5-isoxazolyl]phenyl]Acetamide] the IC50 ([1]; Hepatitis C virus) was less than 10 µM and the IC50 at 48 h [2] was greater than 10 µM.

Molecule `CN(C)c1cc(Cl)c(-c2cc(-c3cccc(NC(=O)C(Cl)Cl)c3)on2)c(Cl)c1` [Compound 65, 2,2-Dichloro-N-[3-[3-(2,6-dichloro-4-dimethylaminophenyl)-5-isoxazolyl]phenyl]Acetamide] has an IC50 ([1]; Hepatitis C virus) of less than 10 µM and an IC50 at 48 h [2] greater than 10 µM.

`O=C(CCl)Nc1cccc(-c2cc(-c3c(Cl)cccc3Cl)no2)c1` [Compound 67, 2-Chloro-N-[3-[3-(2,6-dichlorophenyl)-5-isoxazolyl]phenyl]Acetamide] gave an IC50 ([1]; Hepatitis C virus) of less than 10 µM and an IC50 at 48 h [2] greater than 5 µM.

`Cc1cc(C)c(-c2cc(-c3cccc(NC(=O)C(Cl)Cl)c3)on2)c(C)c1` [Compound 69, 2,2-Dichloro-N-[3-[3-(2,4,6-trimethylphenyl)-5-isoxazolyl]phenyl]Acetamide] gave an IC50 ([1]; Hepatitis C virus) of less than 10 µM and an IC50 at 48 h [2] of 3 µM.

`COc1cccc(C(F)(F)F)c1-c1cc(-c2cccc(NC(=O)C(Cl)Cl)c2)on1` [Compound 77, 2,2-Dichloro-N-[3-[3-(2-methoxy-6-trifluoromethylphenyl)-5-isoxazolyl]phenyl]Acetamide] gave an IC50 ([1]; Hepatitis C virus) of less than 10 µM and an IC50 at 48 h [2] greater than 10 µM.

Work on `O=C(Nc1cccc(-c2cc(-c3c(Cl)cccc3C3CC3)no2)c1)C(Cl)Cl` [Compound 79, 2,2-Dichloro-N-[3-[3-(2-chloro-6-cyclopropylphenyl)-5-isoxazolyl]phenyl]Acetamide] yielded an IC50 ([1]; Hepatitis C virus) of less than 10 µM and an IC50 at 48 h [2] greater than 10 µM.

With `COc1cccc(Cl)c1-c1cc(-c2cccc(NC(=O)C(Cl)Cl)c2)on1` [Compound 81, 2,2-Dichloro-N-[3-[3-(2-chloro-6-methoxyphenyl)-5-isoxazolyl]phenyl]Acetamide] the IC50 ([1]; Hepatitis C virus) was less than 10 µM and the IC50 at 48 h [2] was greater than 10 µM.

For `O=C(Nc1cccc(-c2cc(-c3c(O)cccc3Cl)no2)c1)C(Cl)Cl` [Compound 83, 2,2-Dichloro-N-[3-[3-(2-chloro-6-hydroxyphenyl)-5-isoxazolyl]phenyl]Acetamide], the IC50 ([1]; Hepatitis C virus) was less than 10 µM and the IC50 at 48 h [2] was greater than 10 µM.

In the case of `CC(C)(C)OC(=O)N1CCCCC1C(=O)N1CCN(c2cccc(Cl)c2-c2cc(-c3cccc(NC(=O)C(Cl)Cl)c3)on2)CC1` (centres unmarked) [Compound 656], the IC50 [1] is reported as less than 10 µM.

For `O=C(Nc1cccc(-c2cc(-c3c(Cl)cccc3N3CCN(C(=O)c4cc(C(F)(F)F)cc(C(F)(F)F)c4)CC3)no2)c1)C(Cl)Cl` [Compound 658], the IC50 [1] was less than 10 µM.

For `COc1cccc(C(=O)N2CCN(c3cccc(Cl)c3-c3cc(-c4cccc(NC(=O)C(Cl)Cl)c4)on3)CC2)c1` [Compound 659], the IC50 [1] was less than 10 µM.

Molecule `O=C(Nc1cccc(-c2cc(-c3c(Cl)cccc3N3CCN(C(=O)c4cccc([N+](=O)[O-])c4)CC3)no2)c1)C(Cl)Cl` [Compound 660] has an IC50 [1] of less than 10 µM.

With `O=C(Nc1cccc(-c2cc(-c3c(Cl)cccc3N3CCN(C(=O)c4ccc(C(F)(F)F)cc4)CC3)no2)c1)C(Cl)Cl` [Compound 661] the IC50 [1] was less than 10 µM.

In the case of `O=C(Nc1cccc(-c2cc(-c3c(Cl)cccc3N3CCN(C(=O)c4ccc(F)cc4)CC3)no2)c1)C(Cl)Cl` [Compound 662], the IC50 [1] is reported as less than 10 µM.

For `N#Cc1cccc(C(=O)N2CCN(c3cccc(Cl)c3-c3cc(-c4cccc(NC(=O)C(Cl)Cl)c4)on3)CC2)c1` [Compound 663], the IC50 [1] was less than 10 µM.

With `COc1ccc(C(=O)N2CCN(c3cccc(Cl)c3-c3cc(-c4cccc(NC(=O)C(Cl)Cl)c4)on3)CC2)cc1` [Compound 664] the IC50 [1] was less than 10 µM.

For `O=C(Nc1cccc(-c2cc(-c3c(Cl)cccc3N3CCN(C(=O)C4CCCCN4)CC3)no2)c1)C(Cl)Cl` (centres unmarked) [Compound 666], the IC50 [1] was less than 10 µM.

`O=C(Nc1cccc(-c2cc(-c3c(Cl)cccc3N3CCN(CCN4CCCCC4)CC3)no2)c1)C(Cl)Cl` [Compound 667] showed an IC50 [1] of less than 10 µM.

Work on `O=C(Nc1cccc(-c2cc(-c3c(Cl)cccc3N3CCC(C(=O)N4CCOCC4)CC3)no2)c1)C(Cl)Cl` [Compound 668] yielded an IC50 [1] greater than 10 µM.

For `CCCCNC(=O)Nc1cccc(Cl)c1-c1cc(-c2cccc(NC(=O)C(Cl)Cl)c2)on1` [Compound 669], the IC50 [1] was less than 10 µM.

For `O=C(Nc1cccc(-c2cc(-c3c(Cl)cccc3OCc3ccccc3)no2)c1)C(Cl)Cl` [Compound 670], the IC50 [1] was less than 10 µM.

Molecule `O=C(Nc1cccc(-c2cc(-c3c(Cl)cccc3I)no2)c1)C(Cl)Cl` [Compound 677] has an IC50 [1] of less than 10 µM.

For `CC(C)(C)OC(=O)COc1cccc(Cl)c1-c1cc(-c2cccc(NC(=O)C(Cl)Cl)c2)on1` [Compound 678], the IC50 [1] was greater than 10 µM.

In the case of `O=C(Nc1cccc(-c2cc(-c3c(Cl)cccc3NS(=O)(=O)c3ccc(Cl)cc3)no2)c1)C(Cl)Cl` [Compound 679], the IC50 [1] is reported as less than 10 µM.

For `O=C(Nc1cccc(-c2cc(-c3c(Cl)cccc3N3CCC(NS(=O)(=O)c4ccccc4)C3)no2)c1)C(Cl)Cl` (centres unmarked) [Compound 681], the IC50 [1] was less than 10 µM.

For `O=C(Nc1cccc(-c2cc(-c3c(Cl)cccc3C(=O)N3CCOCC3)no2)c1)C(Cl)Cl` [Compound 683], the IC50 [1] was less than 10 µM.

Work on `O=C(Nc1cccc(-c2cc(-c3c(Cl)cccc3-c3cccnc3)no2)c1)C(Cl)Cl` [Compound 685] yielded an IC50 [1] of less than 10 µM.

With `CC(C)(C)OC(=O)c1cccc(Cl)c1-c1cc(-c2cccc(NC(=O)C(Cl)Cl)c2)on1` [Compound 686] the IC50 [1] was less than 10 µM.

`O=C(O)c1cccc(Cl)c1-c1cc(-c2cccc(NC(=O)C(Cl)Cl)c2)on1` [Compound 687] showed an IC50 [1] greater than 10 µM.

For `CNC(=O)c1cccc(Cl)c1-c1cc(-c2cccc(NC(=O)C(Cl)Cl)c2)on1` [Compound 691], the IC50 [1] was less than 10 µM.

With `COC(=O)C(NC(=O)c1cccc(Cl)c1-c1cc(-c2cccc(NC(=O)C(Cl)Cl)c2)on1)c1ccccc1` (centres unmarked) [Compound 693] the IC50 [1] was greater than 10 µM.
